Measurements taken from PMC6150346, “Disrupting VEGF–VEGFR1 Interaction: De Novo Designed Linear Helical Peptides to Mimic the VEGF13-25 Fragment” (Molecules : A Journal of Synthetic Chemistry and Natural …, 2017).
Read-outs that look alike come from different tables or passages of the source.

How the values were obtained:
[1] = biological target: T1, extracellular domain (ECD, D1–D7) of VEGFR1 (Homo sapiens, UniProt P17948); details: cited from earlier work
T1 construct: VEGFR-1 D1-D7 (ECD domain)/Fc Chimera; purchased Bio-techne R&D, Abingdon, UK
T1 sequence (P17948 27-758 limits assumed): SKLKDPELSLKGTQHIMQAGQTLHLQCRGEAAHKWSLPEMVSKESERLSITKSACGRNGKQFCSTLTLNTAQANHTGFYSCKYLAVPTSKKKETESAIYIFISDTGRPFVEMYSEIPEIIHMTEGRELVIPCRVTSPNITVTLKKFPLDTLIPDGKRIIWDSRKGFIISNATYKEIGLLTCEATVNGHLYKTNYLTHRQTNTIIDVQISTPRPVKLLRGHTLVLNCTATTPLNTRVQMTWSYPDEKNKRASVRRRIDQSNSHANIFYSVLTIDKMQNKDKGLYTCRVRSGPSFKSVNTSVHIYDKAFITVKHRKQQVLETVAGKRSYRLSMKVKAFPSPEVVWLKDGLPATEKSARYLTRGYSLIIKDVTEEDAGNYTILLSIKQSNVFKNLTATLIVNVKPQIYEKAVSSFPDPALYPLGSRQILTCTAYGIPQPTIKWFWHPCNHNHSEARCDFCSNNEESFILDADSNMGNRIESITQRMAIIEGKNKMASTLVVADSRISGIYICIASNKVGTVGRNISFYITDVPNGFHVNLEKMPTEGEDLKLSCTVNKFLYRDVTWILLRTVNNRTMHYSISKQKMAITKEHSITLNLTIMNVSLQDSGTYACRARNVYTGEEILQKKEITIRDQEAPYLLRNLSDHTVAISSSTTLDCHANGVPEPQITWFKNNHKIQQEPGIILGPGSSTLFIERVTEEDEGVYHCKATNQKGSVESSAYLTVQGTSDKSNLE

[2] = biological target: T1, extracellular domain (ECD, D1–D7) of VEGFR1; test: Chemiluminescent competition (displacement) assay: biotinylated VEGF165 (VEGF-A) vs peptide on coated VEGFR1; format: binding; details: for % of Displacement, 100 μM: biotinylated VEGF-A (131 pM btVEGF165) displaced by 100 μM peptide on VEGFR1 ECD (D1–D7), PBS 1% DMSO, 3 h 37 °C; for % of Displacement, 100 μM / % of Displacement, 30 μM: chemiluminescence; for % of Displacement, 100 μM / % of Displacement, 30 μM / IC50: three experiments in triplicate; for % of Displacement, 30 μM + EDTA: biotinylated VEGF-A displaced by 30 μM peptide in the presence of EDTA on VEGFR1 ECD (D1–D7), to avoid false positives from metals or aggregation; for % of Displacement, 30 μM: biotinylated VEGF-A displaced by 30 μM peptide on VEGFR1 ECD (D1–D7); for IC50: dose–response displacement assay on VEGFR1, log(inhibitor) vs. response fit, GraphPad Prism, read-out: IC50 (95% Confident Interval), relative inhibitory concentration 50
Method: The binding studies were performed on VEGF isoform VEGF-A (VEGF165) that is the most commonly involved in pathological angiogenesis. Compounds were first evaluated for their ability to displace biotinylated VEGF-A at two different doses, 30 and 100 μM (Table 2). A chemiluminescent assay, relying on competition between tested compounds and biotinylated VEGF-A for binding to the extracellular domain of recombinant VEGFR1, was used.
As described by Muller Y. A. et al., the surface of white high-binding 96-well microplate (Corning Life Sciences, Amsterdam, The Netherlands) was coated with 100 μL of phosphate-buffered saline solution (PBS, pH 7.4) containing 200 ng/mL of VEGFR-1 D1-D7 (ECD domain)/Fc Chimera or 150 ng/mL of VEGFR1 D1-D3/Fc chimera (Bio-techne R&D, Abingdon, UK) and incubated at 4 °C overnight. After three washes with 250 μL of PBS 0.1%, (v/v) tween 20 (buffer A), the plate was blocked by 200 μL of PBS with 3% (w/v) of BSA and stirred at 37 °C for 2 h. The plate was washed three times with buffer A. Then, 100 μL of a solution containing 131 pM of btVEGF165 (Bio-techne, R&D, Abingdon, UK) and the tested compounds at various concentration diluted in PBS containing 1% DMSO were added in each well. After 3 h stirring at 37 °C, the plate was washed four times with buffer A and 100 μL of streptavidin-horseradish peroxidase (Amersham Biosciences, Little Chalfont, UK) diluted at 1:8000 in PBS containing 0.1% (v/v) Tween 20 and 0.3% (w/v) BSA were added per well. After 1 h of incubation at 37 °C under obscurity and stirring, the plate was washed five times with 250 μL of buffer A and 100 μL of SuperSignal West Pico chemiluminescent substrate (Pierce, Appleton, WI, USA) were added. The remaining bt-VEGF165 was detected by chemiluminescence, which was quantified. The percentages of btVEGF165 displacement were calculated by the following formula: percentage of displacement = 100 × [1 − (S − NS)/(MS − NS)], where S is the signal measured, NS is the nonspecific binding signal and MS is the maximum binding signal observed with btVEGF165 without compounds tested. […] Each experiment was performed three times in triplicate.

| % of Displacement, 100 μM [2] [%] | % of Displacement, 30 μM + EDTA [2] [%] | % of Displacement, 30 μM [2] [%] | IC50 [2] [µM] | Substance | IC50 ([1]; displacement of biotinylated VEGF165 from VEGFR1 ECD, previous study, read-out: IC50 (relative inhibitory concentration 50)) [µM] | % of Displacement, 100 μM ([1]; percentage of biotinylated VEGF165 displaced by 100 μM peptide on whole extracellular domain (ECD, D1–D7) of VEGFR1, previously described peptides) [%] |
| --- | --- | --- | --- | --- | --- | --- |
| 60 ± 1 | 55 ± 1 | 59 ± 4 | 30.4 | Ac-SSEEFARNIAAYN-NH2 [Compound 32] |  |  |
| 72 ± 1 | 71 ± 2 | 60 ± 3 | 0.046 | Ac-SSEEFARNWAAIN-NH2 [Compound 29] |  |  |
| 55 ± 1 | 55 ± 4 | 64 ± 3 | 14.5 | Ac-SSEEWARNFAAFN-NH2 [Compound 10] |  |  |
| 62 ± 1 | 44 ± 5 | 71 ± 2 | 21.3 | Ac-SSEEWARNYAAFN-NH2 [Compound 16] |  |  |
| 63 ± 2 | 40 ± 7 | 63 ± 1 | 25.6 | Ac-SSEEYARNWAAWN-NH2 [Compound 8] |  |  |

More lines, now with the values behind:

| Substance | % of Displacement, 100 μM [2] [%] | % of Displacement, 30 μM + EDTA [2] [%] | % of Displacement, 30 μM [2] [%] | IC50 [2] [µM] | IC50 ([1]; displacement of biotinylated VEGF165 from VEGFR1 ECD, previous study, read-out: IC50 (relative inhibitory concentration 50)) [µM] | % of Displacement, 100 μM ([1]; percentage of biotinylated VEGF165 displaced by 100 μM peptide on whole extracellular domain (ECD, D1–D7) of VEGFR1, previously described peptides) [%] |
| --- | --- | --- | --- | --- | --- | --- |
| Ac-KLTWQELYQLKYKGI-NH2 [QK, proangiogenic peptide of D'Andrea and co-workers] |  |  |  |  | 32 ± 8 | 69 ± 3 |
| Ac-SSEEFARNWAAFN-NH2 [Compound 12] | 55 ± 1 | 53 ± 4 | 66 ± 1 | 48.6 |  |  |
| Ac-SSEEYARNWAAFN-NH2 [Compound 14] | 58 ± 1 | 56 ± 6 | 62 ± 4 | 14 |  |  |
